# Measurements taken from US20240254114A1, “PREPARATION OF FUSED AZOLE DERIVATIVES AS NOVEL DIACYLGLYCERIDE 0-ACYLTRANSFERASE 2 INHIBITORS” (Merck Sharp & Dohme LLC, priority 2022, published 2024).
# Target: human DGAT2 (Homo sapiens (Human), UniProt Q96PD7)
# Test: DGAT2 Enzymatic Activity Assay
# Settings: Human DGAT2 IC50, hDGAT2 membrane prep from Sf-9 cells; 13C18-triolein product by LC/MS/MS
# Method: Sf-9 insect cells were maintained in Grace's insect cell culture medium with 10% heated-inactivated fetal bovine serum, 1% Pluronic F-68 and 0.14 μg/ml Kanamycine sulfate at 27° C. in a shaker incubator. After infection with untagged baculovirus expressing human DGAT2 (hDGAT2) at multiplicity of infection (MOI) 3 for 48 hours, cells were harvested. Cell pellets were suspended in buffer containing 10 mM Tris-HCl pH 7.5, 1 mM EDTA, 250 mM sucrose and Complete Protease Inhibitor Cocktail (Sigma Aldrich), and sonicated on ice. Cell debris were removed by centrifugation at 2000×g for 15 minutes. Membrane fractions were isolated by ultracentrifugation (100,000×g), resuspended in the same buffer, and frozen (−80° C.) for later use. The protein concentration was determined with the Pierce™ BCA Protein Assay Kit (Thermo Fisher Scientific).
# LC/MS/MS analyses were performed using Thermal Fisher's LX4-TSQ Vantage system. This system consists of an Agilent binary high-performance liquid chromatography (HPLC) pump and a TSQ Vantage triple quadrupole MS/MS instrument. For each sample, 2 μL samples from the top organic layer of in-plate liquid-liquid extraction were injected onto a Thermo Betabasic C4 column (2.1 mm×20 mm, 5 μm particle size). The samples were then eluted using the following conditions; mobile phase: Isopropanol: acetonitrile/10 mM ammonium formate=50/35/15 (v/v/v), flow rate: 0.8 mL/min, temperature: 25° C. Data was acquired in positive mode using a heated electrospray ionization (HESI) interface. […] The peak area was integrated by Xcalibur Quan software. The ratio between the ^13C18 triolein generated in the reaction and spiked in internal standard ^13C21-triolein was used to generate percentage inhibition and IC50 values. […] DGAT2 activity was determined by measuring the amount of enzymatic product ^13C18-triolein (^13C-1,2,3-Tri(cis-9-octadecenoyl)glycerol) using the membrane prep mentioned above. The assay was carried out in ABgene 384-well assay plates in a final volume of 25 μL at rt.
# Chain of human DGAT2 (Q96PD7 whole entry): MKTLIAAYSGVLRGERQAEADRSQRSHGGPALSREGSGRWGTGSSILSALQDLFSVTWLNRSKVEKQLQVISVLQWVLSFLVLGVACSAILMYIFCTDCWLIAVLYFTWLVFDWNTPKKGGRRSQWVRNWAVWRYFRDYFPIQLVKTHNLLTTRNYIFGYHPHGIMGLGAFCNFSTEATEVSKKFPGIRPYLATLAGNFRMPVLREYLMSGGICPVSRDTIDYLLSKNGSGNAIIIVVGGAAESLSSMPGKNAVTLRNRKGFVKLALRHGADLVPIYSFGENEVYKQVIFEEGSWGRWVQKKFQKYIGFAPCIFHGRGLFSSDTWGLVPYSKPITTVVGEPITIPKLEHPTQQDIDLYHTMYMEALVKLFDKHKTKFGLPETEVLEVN
row,Compound,IC50 [nM]
1,"CCC(COc1ccc2nc(C(=O)NC3(C)CCS(=O)(=O)CC3)n(C)c2n1)OCC(F)F (stereo not drawn) [Example 60, 5-[2-(2,2-Difluoroethoxy)butoxy]-3-methyl-N-(4-methyl-1,1-dioxo-thian-4-yl)imidazo[4,5-b]pyridine-2-carboxamide]",3
2,"Cn1c(C(=O)NC2(C)CCS(=O)(=O)CC2)nc2ccc(Oc3ncc(Cl)cc3OCC(F)(F)F)c(F)c21 [Example 21, 6-((5-Chloro-3-(2,2,2-trifluoroethoxy)pyridin-2-yl)oxy)-7-fluoro-1-methyl-N-(4-methyl-1,1-dioxidotetrahydro-2H-thiopyran-4-yl)-1H-benzo[d]imidazole-2-carboxamide]",2.3
3,"Cn1c(C(=O)NC2(C)CCS(=O)(=O)CC2)nc2ccc(OCC(CC(F)(F)F)OC(F)F)nc21 (single isomer, unassigned) [Example 62b, 5-[2-(difluoromethoxy)-4,4,4-trifluoro-butoxy]-3-methyl-N-(4-methyl-1,1-dioxo-thian-4-yl)imidazo[4,5-b]pyridine-2-carboxamide]",163
4,"Cn1c(C(=O)NC2(C)CCS(=O)(=O)CC2)nc2c(F)c(Oc3ncc(Cl)cc3OCC(F)(F)F)ccc21 [Example 22, 5-((5-chloro-3-(2,2,2-trifluoroethoxy)pyridin-2-yl)oxy)-4-fluoro-1-methyl-N-(4-methyl-1,1-dioxidotetrahydro-2H-thiopyran-4-yl)-1H-benzo[d]imidazole-2-carboxamide]",604

# Now from value to molecule:
row,IC50 [nM],Compound
1,3.3,"Cn1c(C(=O)NC2(C)CCS(=O)(=O)CC2)nc2cnc(Oc3ncc(Cl)cc3OCC(F)F)c(F)c21 [Example 76, 6-[[5-Chloro-3-(2,2-difluoroethoxy)-2-pyridyl]oxy]-7-fluoro-1-methyl-N-(4-methyl-1,1-dioxo-thian-4-yl)imidazo[4,5-c]pyridine-2-carboxamide]"
2,1.3,"Cn1c(C(=O)NC2(C)CCS(=O)(=O)CC2)nc2ccc(Oc3ncc(Cl)cc3OCC(F)F)nc21 [Example 28, 5-((5-Chloro-3-(2,2-difluoroethoxy)pyridin-2-yl)oxy)-3-methyl-N-(4-methyl-1,1-dioxidotetrahydro-2H-thiopyran-4-yl)-3H-imidazo[4,5-b]pyridine-2-carboxamide]"
3,1.5,"Cn1c(C(=O)NC2(C)CCS(=O)(=O)CC2)nc2cc(F)c(Oc3ncc(Cl)cc3OCC(F)F)nc21 [Example 41, 5-((5-chloro-3-(2,2-difluoroethoxy)pyridin-2-yl)oxy)-6-fluoro-3-methyl-N-(4-methyl-1,1-dioxidotetrahydro-2H-thiopyran-4-yl)-3H-imidazo[4,5-b]pyridine-2-carboxamide]"
4,15,"CC1(NC(=O)c2nc3ccc(Oc4ncc(Cl)cc4OCC(F)F)nc3[nH]2)CCS(=O)(=O)CC1 [Example 50, 5-((5-chloro-3-(2,2-difluoroethoxy)pyridin-2-yl)oxy)-N-(4-methyl-1,1-dioxidotetrahydro-2H-thiopyran-4-yl)-3H-imidazo[4,5-b]pyridine-2-carboxamide]"

# Same assay, conditions: read-out: Human DGAT2 IC50; hDGAT2 membrane prep from Sf-9 cells; 13C18-triolein product by LC/MS/MS
row,Compound,IC50 [nM]
1,"Cn1c(C(=O)NC2(C)CCS(=O)(=O)CC2)nc2cnc(OCc3ncc(F)cc3OCC(F)(F)F)cc21 [Example 81, 6-[[5-Fluoro-3-(2,2,2-trifluoroethoxy)-2-pyridyl]methoxy]-1-methyl-N-(4-methyl-1,1-dioxo-thian-4-yl)imidazo[4,5-c]pyridine-2-carboxamide]",262
2,"CC1(NC(=O)c2nc3ccc(Oc4ncccc4OCC(F)(F)F)cc3s2)CS(=O)(=O)C1 [Example 92, N-(3-methyl-1,1-dioxo-thietan-3-yl)-6-[[3-(2,2,2-trifluoroethoxy)-2-pyridyl]oxy]-1,3-benzothiazole-2-carboxamide]",12
3,"Cn1c(C(=O)NC2(C)CCS(=O)(=O)CC2)nc2ncc(Oc3ncc(F)cc3OCC(F)(F)F)cc21 [Example 83, 6-[[5-fluoro-3-(2,2,2-trifluoroethoxy)-2-pyridyl]oxy]-1-methyl-N-(4-methyl-1,1-dioxo-thian-4-yl)imidazo[4,5-b]pyridine-2-carboxamide]",12
4,"Cn1c(C(=O)NC2(C)CCS(=O)(=O)CC2)nc2cnc(Oc3ncc(F)cc3OCC(F)(F)F)cc21 [Example 68, 6-[[5-fluoro-3-(2,2,2-trifluoroethoxy)-2-pyridyl]oxy]-1-methyl-N-(4-methyl-1,1-dioxo-thian-4-yl)imidazo[4,5-c]pyridine-2-carboxamide]",27
5,"CC1(NC(=O)c2nc3ccc(Oc4ncccc4OCC(F)(F)F)cc3o2)CCS(=O)(=O)CC1 [Example 2, N-(4-methyl-1,1-dioxo-thian-4-yl)-6-[[3-(2,2,2-trifluoroethoxy)-2-pyridyl]oxy]-1,3-benzoxazole-2-carboxamide]",47
6,"Cn1c(C(=O)NC2(C)CCS(=O)(=O)CC2)nc2cnc(Oc3ncc(F)cc3OCC(F)(F)F)c(F)c21 [Example 77, 7-fluoro-6-[[5-fluoro-3-(2,2,2-trifluoroethoxy)-2-pyridyl]oxy]-1-methyl-N-(4-methyl-1,1-dioxo-thian-4-yl)imidazo[4,5-c]pyridine-2-carboxamide]",48

# Next, values leading:
row,IC50 [nM],Compound
1,42,"Cn1c(C(=O)NC2(C)CS(=O)(=O)C2)nc2ccc(Oc3ncc(F)cc3OCC(F)F)nc21 [Example 36, 5-[[3-(2,2-difluoroethoxy)-5-fluoro-2-pyridyl]oxy]-3-methyl-N-(3-methyl-1,1-dioxo-thietan-3-yl)imidazo[4,5-b]pyridine-2-carboxamide]"
2,10,CC1(NC(=O)c2nc3ccc(Oc4ncc(Cl)cc4OCC(F)F)nc3s2)CS(=O)(=O)C1 [Example 95]
3,2.2,"Cn1c(C(=O)NC2(C)CCS(=O)(=O)CC2)nc2cc(F)c(Oc3ncc(F)cc3OCC(F)(F)F)nc21 [Example 42, 6-fluoro-5-((5-fluoro-3-(2,2,2-trifluoroethoxy)pyridin-2-yl)oxy)-3-methyl-N-(4-methyl-1,1-dioxidotetrahydro-2H-thiopyran-4-yl)-3H-imidazo[4,5-b]pyridine-2-carboxamide]"
4,6.3,"Cc1cc2nc(C(=O)NC3(C)CCS(=O)(=O)CC3)n(C)c2nc1Oc1ncc(F)cc1OCC(F)(F)F [Example 46, 5-((5-fluoro-3-(2,2,2-trifluoroethoxy)pyridin-2-yl)oxy)-3,6-dimethyl-N-(4-methyl-1,1-dioxido-tetrahydro-2H-thiopyran-4-yl)-3H-imidazo[4,5-b]pyridine-2-carboxamide]"
5,11,"Cn1c(C(=O)NC2(C)CS(=O)(=O)C2)nc2cnc(Oc3ncc(Cl)cc3OCC(F)F)cc21 [Example 70, 6-[[5-chloro-3-(2,2-difluoroethoxy)-2-pyridyl]oxy]-1-methyl-N-(3-methyl-1,1-dioxo-thietan-3-yl)imidazo[4,5-c]pyridine-2-carboxamide]"
6,14,"Cc1nc(Oc2ncc(Cl)cc2OCC(F)F)cc2c1nc(C(=O)NC1(C)CCS(=O)(=O)CC1)n2C [Example 74, 6-[5-chloro-3-(2,2-difluoroethoxy)pyridin-1-ium-2-yl]oxy-1,4-dimethyl-N-(4-methyl-1,1-dioxo-thian-4-yl)imidazo[4,5-c]pyridine-2-carboxamide]"
7,0.6,"CC1(NC(=O)c2nc3ccc(Oc4ncc(Cl)cc4OCC(F)F)nc3n2CC(F)F)CCS(=O)(=O)CC1 [Example 54, 5-((5-chloro-3-(2,2-difluoroethoxy)pyridin-2-yl)oxy)-3-(2,2-difluoroethyl)-N-(4-methyl-1,1-dioxidotetrahydro-2H-thiopyran-4-yl)-3H-imidazo[4,5-b]pyridine-2-carboxamide]"
